Data reported in patent publication US20250326748A1, “COMPOUNDS AND METHODS FOR MODULATING SPLICING” (REMIX THERAPEUTICS INC., priority 2022, published 2025).
pIC50: −log10 of the molar value. Counter-ions that a name gives are not always drawn. Like-named read-outs stand apart in the source and are kept apart here.

Assays:
[1] = test system: MYB mRNA; experiment: Splicing RT-qPCR assay, MYB canonical (CJ) and alternative (AJ) junction mRNA; type: cell-based, human; conditions: Homo sapiens; for pIC50: canonical junction mRNA; for AC50: alternative junction mRNA, read-out: MYB AJ (AC50, increase in AJ mRNA)
In short: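 Read-out: one-step RT-qPCR on crude lysates measuring exon-exon junction isoforms, CJ for the canonical transcript and AJ for compound-induced exon inclusion. Normalization used PPIA for adherent A673 and GAPDH or GUSB for K562. Cells received 11 doses, 3-fold apart, top 10 uM, for 24 h.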

[2] = test system: K562 cells; experiment: Cell viability, Cell Titer Glo 2.0 assay, K562; conditions: 72 hours
[3] = test system: Target C; experiment: HiBiT protein abundance assay, Target C (K562 HiBiT knock-in); type: cell-based, human; conditions: HiBiT knock-in cells, 24 hours
Description: (§1) Cells were maintained in IMDM with 10% FBS. Before the assay, cells were diluted with […] growth media (IMDM+1% FBS media) and were seeded in a 384-well plate at a density of 10000 cells/well (for each cell line listed in Table 6). Each compound was prepared as a 10-point 3-old serial dilution in DMSO with the top dose at a final concentration of 10 μM in the well. Unmodified K562 cells were added at the previously specified density with DMSO to serve as an assay baseline and positive control (PC) and DMSO only with the respective modified cell lines was added to the negative control (NC) columns. Final DMSO concentration was kept at or below 0.25%. Treated cell plates were placed in an incubator at 37° C. with 5% CO2 for 24 hours. After 24 hours, 25 μL of Complete HiBit Lytic reagent was added to each well at room temperature (e.g. one plate requiring 10 ml Lytic Buffer, 100 μL LgBiT Protein, 200 μL Lytic Substrate), shaken for 5 minutes at 600 RPM, then left to sit for 10 minutes for signal to stabilize before reading on a Spark Cyto plate reader (Tecan) with a 500 ms measurement time.
(§2) To determine compound effects on protein abundance of each target in Table 6, the percent response for each respective cell line was calculated at each compound concentration as follows:
(§3) For the normalized response at each concentration, a four-parameter logistical regression was fit to the data and the response was interpolated at the 50% value to determine a concentration for protein abundance at 50% (IC50) the untreated control.

[4] = test system: HiBiT-tagged HTT protein; experiment: HiBiT protein abundance assay, HTT (K562 HiBiT knock-in); type: cell-based, human; conditions: HiBiT knock-in cells, 24 hours
Description: (§4) Compounds described herein were used to screen for effects on quantitative protein abundance using a HiBit assay system (Promega). Quantitative protein abundance was determined by measuring the protein levels of HiBit-tagged protein targets expressed in cell culture via luminescence using the Nano-Glo HiBiT Lytic Detection System, which uses a split complementation assay format to reconstitute NanoBiT enzyme to generate a luminescent signal. A protein abundance assay was developed such that endogenous protein targets could be modified with the HiBiT peptide tag and their abundance could be assessed after compound treatment. Briefly, K562 cell lines containing a HiBiT-modification were treated with various compounds described herein (e.g., compounds of Formulas (I), or (II)). After treatment for 24 hours, the protein abundance of a specific target was determined by measuring luminescence.
(§5) • Promega Nano-Glo HiBiT Lytic Detection System (cat #N3030) • Corning 384-well TC-treated microplates (cat #3570)
as §1, §2, §3

[5] = test system: HiBiT-tagged MYB protein; experiment: HiBiT protein abundance assay, MYB (K562 HiBiT knock-in); type: cell-based, human; conditions: HiBiT knock-in cells, 24 hours
Description: as §4, §5, §1, §2, §3

[6] = qPCR panel, read-out: MYB CJ (decrease in CJ mRNA levels, IC50)
[7] = RT-qPCR, A673 or K562 cells, 24 hours treatment
[8] = RT-qPCR, A673 or K562 cells, 24 hours treatment, read-out: MYB CJ (IC50, decrease in CJ mRNA)

| Compound | pIC50 [1, 6] | AC50 [1, 7] | pIC50 [1, 8] | Effect on Cell Viability, K562 [2] | pIC50 [3] | pIC50 [4] | pIC50 [5] |
| --- | --- | --- | --- | --- | --- | --- | --- |
| CN[C@@H]1CN(c2cnc3nc(-c4cc5cn(C)nc5c(C)c4O)ccc3c2)C[C@H]1F (single isomer, unassigned) [Compound 130] | > 7.00 | < 0.1 µM | > 7.00 | B (100-1000 nM) | 6.00 to 7.00 | 6.00 to 7.00 | 6.00 to 7.00 |
| CN[C@H]1CN(c2cnc3nc(-c4cc5cn(C)nc5c(C)c4O)ccc3c2)C[C@@H]1F (single isomer, unassigned) [Compound 131] | 6.00 to 7.00 | 0.1 to 1 µM | 6.00 to 7.00 | C (1000-9999 nM) | 5.00 to 6.00 | 5.00 to 6.00 | 6.00 to 7.00 |
| Cc1c(O)c(-c2ccc3cc(N4CCC(NCC5CC5)C4)cnc3n2)cc2cn(C)nc12 (stereo in doubt) [Compound 119, 5-{6-[(3R)-3-[(cyclopropylmethyl)amino]pyrrolidin-1-yl]-1,8-naphthyridin-2-yl}-2,7-dimethylindazol-6-ol] | > 7.00 | < 0.1 µM | > 7.00 | A (<100 nM) | 6.00 to 7.00 | > 7.00 | > 7.00 |
| CNC1CCN(c2cnc3nc(-c4cc5cn(C)nc5c(C)c4O)ncc3c2)C1 (stereo not shown) [Compound 104, 2,7-dimethyl-5-{6-[3-(methylamino)pyrrolidin-1-yl]pyrido[2,3-d]pyrimidin-2-yl}indazol-6-ol] | > 7.00 | < 0.1 µM | > 7.00 | A (<100 nM) | 6.00 to 7.00 | 6.00 to 7.00 | > 7.00 |
| Cc1c(O)c(-c2ccc3cc(N4CCC(NCC5CC5)C4)cnc3n2)cc2cn(C)nc12 (stereo not shown) [Compound 105, 5-(6-{3-[(cyclopropylmethyl)amino]pyrrolidin-1-yl}-1,8-naphthyridin-2-yl)-2,7-dimethylindazol-6-ol] | > 7.00 | < 0.1 µM | > 7.00 | A (<100 nM) | > 7.00 | > 7.00 | > 7.00 |
| CCNC1CCN(c2cnc3nc(-c4cc5cn(C)nc5c(F)c4O)ccc3c2)C1 (stereo not shown) [Compound 106, 5-{6-[3-(ethylamino)pyrrolidin-1-yl]-1,8-naphthyridin-2-yl}-7-fluoro-2-methylindazol-6-ol] | > 7.00 | < 0.1 µM | > 7.00 | A (<100 nM) | > 7.00 | > 7.00 | > 7.00 |
| CN[C@@H]1CCN(c2cnc3nc(-c4cc5cn(C)nc5c(C)c4O)ncc3c2)C1 [Compound 107, 2,7-dimethyl-5-{6-[(3R)-3-(methylamino)pyrrolidin-1-yl]pyrido[2,3-d]pyrimidin-2-yl}indazol-6-ol hydrochloride] | > 7.00 | < 0.1 µM | > 7.00 | A (<100 nM) | > 7.00 | > 7.00 | > 7.00 |
| CN[C@@H]1CCN(c2cnc3nc(-c4cc5cn(C)nc5c(C)c4O)ccc3c2)C1 [Compound 112] | > 7.00 | < 0.1 µM | > 7.00 | B (100-1000 nM) | 6.00 to 7.00 | 6.00 to 7.00 | > 7.00 |
| Cc1cn2nc(-c3cnc4nc(C5CCNCC5)ccc4c3)cc(C)c2n1 [Compound 115, 6-(2,8-dimethylimidazo[1,2-b]pyridazin-6-yl)-2-(piperidin-4-yl)-1,8-naphthyridine] | 5.00 to 6.00 | 1 to 10 µM | 5.00 to 6.00 | C (1000-9999 nM) | 5.00 to 6.00 | 5.00 to 6.00 | 5.00 to 6.00 |
| CN[C@H]1CCN(c2cnc3nc(-c4cc(C)c5nc(C)cn5n4)ccc3c2)C1 [Compound 116] | > 7.00 | < 0.1 µM | > 7.00 | A (<100 nM) | > 7.00 | > 7.00 | > 7.00 |
| CN[C@@H]1CCN(c2cnc3nc(-c4cc(C)c5nc(C)cn5n4)ccc3c2)C1 [Compound 117] | > 7.00 | 0.1 to 1 µM | > 7.00 | B (100-1000 nM) | 6.00 to 7.00 | 6.00 to 7.00 | > 7.00 |
| Cc1c(O)c(-c2ccc3cc(N4CC[C@@H](NCC5CC5)C4)cnc3n2)cc2cn(C)nc12 [Compound 118] | > 7.00 | < 0.1 µM | > 7.00 | A (<100 nM) | > 7.00 | > 7.00 | > 7.00 |
| CN[C@H]1CCN(c2cnc3nc(-c4cc5cn(C)nc5c(C)c4O)ncc3c2)C1 [Compound 120] | > 7.00 | < 0.1 µM | > 7.00 | A (<100 nM) | 5.00 to 6.00 | 6.00 to 7.00 | > 7.00 |
| CCNC1CCN(c2cnc3nc(-c4cc5cn(C)nc5c(C)c4O)ccc3c2)C1 (stereo not shown) [Compound 122, 5-{6-[3-(ethylamino)pyrrolidin-1-yl]-1,8-naphthyridin-2-yl}-2,7-dimethylindazol-6-ol] | > 7.00 | < 0.1 µM | > 7.00 | A (<100 nM) | > 7.00 | > 7.00 | > 7.00 |
| CCN[C@H]1CCN(c2cnc3nc(-c4cc5cn(C)nc5c(C)c4O)ccc3c2)C1 [Compound 123] | > 7.00 | < 0.1 µM | > 7.00 | – | 6.00 to 7.00 | > 7.00 | > 7.00 |
| CCN[C@@H]1CCN(c2cnc3nc(-c4cc5cn(C)nc5c(C)c4O)ccc3c2)C1 [Compound 124] | > 7.00 | < 0.1 µM | > 7.00 | A (<100 nM) | > 7.00 | > 7.00 | > 7.00 |
| CN[C@H]1CN(c2cnc3nc(-c4cc5cn(C)nc5c(C)c4O)ccc3c2)C[C@H]1C [Compound 125, 2,7-dimethyl-5-{6-[(3R,4R)-3-methyl-4-(methylamino)379pyrrolidine-1-yl]-1,8-naphthyridin-2-yl}indazol-6-ol] | > 7.00 | < 0.1 µM | > 7.00 | A (<100 nM) | 6.00 to 7.00 | > 7.00 | > 7.00 |
| Cc1c(O)c(-c2cc(C3CC3)c3cc(N4CCNCC4)cnc3n2)cc2cn(C)nc12 [Compound 144, 5-(4-cyclopropyl-6-(piperazin-1-yl)-1,8-naphthyridin-2-yl)-2,7-dimethyl-2H-indazol-6-ol bis(2,2,2-trifluoroacetate)] | 6.00 to 7.00 | 0.1 to 1 µM | 6.00 to 7.00 | – | 5.00 to 6.00 | 6.00 to 7.00 | > 7.00 |
| Cc1cc(-c2cc3cn(C)nc3c(C)c2O)nc2ncc(N3CCNCC3)cc12 [Compound 151, 2,7-dimethyl-5-[4-methyl-6-(piperazin-1-yl)-1,8-naphthyridin-2-yl]indazol-6-ol] | > 7.00 | < 0.1 µM | > 7.00 | – | 6.00 to 7.00 | 6.00 to 7.00 | > 7.00 |
| CN(c1cnc2nc(-c3cc4cn(C)nc4c(F)c3O)ccc2c1)C1CCNCC1 [Compound 284] | 6.00 to 7.00 | 0.1 to 1 µM | 6.00 to 7.00 | – | 5.00 to 6.00 | 5.00 to 6.00 | 6.00 to 7.00 |
